pIC50: −log10 of the molar value. Where a name gives a salt, the structure may show the parent alone.
Tests used:
[1] = system: IL-2 release from stimulated Jurkat cells; assay: Human IL-2 Release Phenotypic Assay (Assay 3); format: cell-based; settings: Jurkat cells (clone E6-1), 200 ng/mL PMA + 300 ng/mL ionomycin, IL-2 by ELISA
Summary of the method: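 Jurkat E6-1 cells in RPMI1640/10% FBS were seeded at 50 000 cells/well and incubated overnight at 37° C. Half-log compound dilutions (0.5% final DMSO) were added for 30 min, then cells were stimulated with 200 ng/mL PMA + 300 ng/mL ionomycin for 48 h. IC50 came from a 4-parameter non-linear regression fit.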

[2] = target: MALT1-GS-Ub (6-His-hMALT-1 residues 339-715 fused to ubiquitin) (Homo sapiens, UniProt Q9UDY8); assay: biochemical;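 further: in vitro MALT1 protease assay: enzyme preincubated with compound 30 min at room temperature, then cleavage of fluorogenic Ac-LVSR-AMC substrate (100 µM) followed by fluorescence every 15 min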
Experimental: MALT1 protease activity was assessed in vitro by measuring the cleavage of a fluorogenic tetrapeptide substrate.
A protein (MALT1-GS-Ub) comprising 6-His-hMALT-1 (residues 339-715), fused to ubiquitin with an 8×GGS linker, was expressed in E. coli, and purified using chitin resin to remove contaminants followed by affinity chromatography purification and size-exclusion chromatography, according to standard protocols.
Briefly, MALT1-GS-Ub (300-600 nM) was incubated with substrate (Ac-LVSR-AMC, 100 μM) in reaction buffer comprising 50 mM HEPES (pH7.0), 25 mM KCl, 0.1% (v/v) CHAPS and 1 mM TCEP.
Test compounds dissolved in DMSO were dispensed into assay plates (384-well, black, shallow ProxiPlates). 7 μl enzyme solution was added and incubated at room temperature for 30 minutes to allow compound binding to occur. 2 μl substrate solution was then added and the fluorescence (excitation 360 nm, emission 460 nm) read every 15 minutes using a suitable plate reader. Final assay DMSO concentration was 1%. […] IC50 values were calculated using GraphPad Prism using a 4-parameter non-linear regression curve fit.

FL hMALT1 enzyme = target: T1, FL hMALT1 enzyme (Homo sapiens, UniProt Q9UDY8); assay: biochemical;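 further: Cell-free protease assay: enzyme preincubated with compound 30 min at room temperature, then cleavage of fluorogenic Ac-LVSR-AMC substrate (100 µM) tracked by fluorescence (ex 360/em 460 nm)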
T1 sequence (Q9UDY8 1-824): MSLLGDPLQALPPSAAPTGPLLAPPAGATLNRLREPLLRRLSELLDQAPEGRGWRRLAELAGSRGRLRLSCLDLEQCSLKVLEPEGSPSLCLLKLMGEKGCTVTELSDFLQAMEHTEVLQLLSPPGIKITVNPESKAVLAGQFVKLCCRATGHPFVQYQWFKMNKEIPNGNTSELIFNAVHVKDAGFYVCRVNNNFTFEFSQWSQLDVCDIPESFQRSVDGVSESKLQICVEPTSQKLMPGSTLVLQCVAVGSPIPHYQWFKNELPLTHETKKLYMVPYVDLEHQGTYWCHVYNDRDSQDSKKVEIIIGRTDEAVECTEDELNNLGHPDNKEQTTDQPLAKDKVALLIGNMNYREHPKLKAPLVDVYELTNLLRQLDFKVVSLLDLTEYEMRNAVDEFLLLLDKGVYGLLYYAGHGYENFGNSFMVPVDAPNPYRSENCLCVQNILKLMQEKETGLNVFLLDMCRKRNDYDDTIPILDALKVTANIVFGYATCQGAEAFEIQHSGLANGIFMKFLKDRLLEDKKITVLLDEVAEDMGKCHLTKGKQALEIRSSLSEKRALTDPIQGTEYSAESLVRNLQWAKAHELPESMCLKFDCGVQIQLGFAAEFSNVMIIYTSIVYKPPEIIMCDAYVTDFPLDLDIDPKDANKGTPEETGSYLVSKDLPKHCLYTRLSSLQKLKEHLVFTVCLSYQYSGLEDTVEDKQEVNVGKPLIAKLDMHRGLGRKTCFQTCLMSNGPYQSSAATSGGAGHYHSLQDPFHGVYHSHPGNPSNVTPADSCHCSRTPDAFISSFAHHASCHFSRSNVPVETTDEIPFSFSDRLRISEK

MALT1-GS-Ub (6-His-hMALT-1 residues 339-715 fused to ubiquitin), sequence (Q9UDY8 with tags, fused parts or gaps limits assumed): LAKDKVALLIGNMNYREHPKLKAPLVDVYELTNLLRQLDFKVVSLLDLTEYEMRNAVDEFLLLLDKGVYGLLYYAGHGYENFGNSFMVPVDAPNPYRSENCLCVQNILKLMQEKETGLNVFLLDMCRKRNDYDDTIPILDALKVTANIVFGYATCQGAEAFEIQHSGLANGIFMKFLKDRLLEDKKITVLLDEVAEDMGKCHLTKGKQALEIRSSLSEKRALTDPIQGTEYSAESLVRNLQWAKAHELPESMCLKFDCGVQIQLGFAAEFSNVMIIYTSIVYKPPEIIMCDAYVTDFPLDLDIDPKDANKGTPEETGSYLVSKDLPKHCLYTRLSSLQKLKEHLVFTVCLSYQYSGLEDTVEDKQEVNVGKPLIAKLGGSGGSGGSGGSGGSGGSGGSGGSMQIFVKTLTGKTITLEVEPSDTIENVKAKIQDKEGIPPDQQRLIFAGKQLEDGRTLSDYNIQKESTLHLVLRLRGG

Row | SMILES | pIC50 ([1]; 48 hours) | pIC50 [2] | pIC50 (FL hMALT1 enzyme) | pIC50 ([1]; Homo sapiens, Jurkat, 48 h)
1 | CN(C(=O)N1CCS(=O)(=O)CC1)[C@@H](c1ccc(NC2Cc3ccccc3C2(C)C)cc1)C(F)(F)F (single isomer, unassigned) [Example 14] | 6.49 | 6.66 | 6.96 | –
2 | CN(C(=O)CO)[C@@H](c1ccc(NC2Cc3ccccc3C2(C)C)cc1)C(F)(F)F (single isomer, unassigned) [Example 31] | – | 6.89 | 7.30 | 5.92
3 | CN(C(=O)C1CNC1)C(c1ccc(NC2Cc3ccccc3C2(C)C)nc1)C(F)(F)F (single isomer, unassigned) [Example 88, N-(1-(6-((1,1-Dimethyl-2,3-dihydro-1H-inden-2-yl)amino)pyridin-3-yl)-2,2,2-trifluoroethyl)-N-methylazetidine-3-carboxamide] | 5.77 | 6.19 | 6.43 | –
4 | CN(C(=O)C1CCS(=O)(=O)CC1)[C@@H](c1ccc(NC2Cc3ccccc3C2(C)C)cc1)C(F)(F)F (single isomer, unassigned) [Example 1] | – | 6.85 | 8.15 | 6.37
5 | CN(C(=O)C1CCS(=O)(=O)CC1)[C@@H](c1ccc(NC2Cc3ccccc3C2(C)C)nc1)C(F)(F)F (single isomer, unassigned) [Example 36] | 5.94 | 6.42 | 7.41 | –
6 | CNS(=O)(=O)CCCC(=O)N(C)[C@@H](c1ccc(NC2Cc3ccccc3C2(C)C)cc1)C(F)(F)F (single isomer, unassigned) [Example 64] | 6.54 | 6.82 | 7.92 | –
7 | CN(C(=O)C1CNC1)C(c1ccc(NC2Cc3ccccc3C2(C)C)nc1)C(F)(F)F (single isomer, unassigned) [Example 87, N-(1-(6-((1,1-Dimethyl-2,3-dihydro-1H-inden-2-yl)amino)pyridin-3-yl)-2,2,2-trifluoroethyl)-N-methylazetidine-3-carboxamide] | – | 5.91 | 6.33 | 5.95
8 | CN(C(=O)c1cc[nH]c(=O)c1)C(c1ccc(NC2Cc3ccccc3C2(C)C)cn1)C(F)(F)F (single isomer, unassigned) [Example 98, N-(1-(5-((1,1-Dimethyl-2,3-dihydro-1H-inden-2-yl)amino)pyridin-2-yl)-2,2,2-trifluoroethyl)-N-methyl-2-oxo-1,2-dihydropyridine-4-carboxamide] | 6.06 | 6.68 | 6.23 | –
9 | CC(=O)N1CC(C(=O)N(C)[C@@H](c2ccc(NC3Cc4ccccc4C3(C)C)cc2)C(F)(F)F)C1 (single isomer, unassigned) [Example 6] | 6.49 | 6.82 | 7.80 | –
10 | CC(=O)N1CC(OC(=O)N(C)[C@@H](c2ccc(NC3Cc4ccccc4C3(C)C)cc2)C(F)(F)F)C1 (single isomer, unassigned) [Example 58] | 5.99 | 6.72 | 7.42 | –
11 | CN(C(=O)C1CCS(=O)(=O)CC1)[C@@H](c1ccc(NC2Cc3ccc(Cl)cc3C2)cc1)C(F)(F)F (single isomer, unassigned) [Example 55] | 5.34 | 6.28 | 6.66 | –
12 | CC(=O)N1CC(OC(=O)N(C)[C@@H](c2ccc(NC3Cc4ccccc4C3(C)C)cc2)C(F)(F)F)C1 (single isomer, unassigned) [Example 57] | 5.43 | 6.80 | 7.04 | –
13 | CN1CC(C(=O)N(C)C(c2ccc(NC3Cc4ccccc4C3(C)C)nc2)C(F)(F)F)C1 (single isomer, unassigned) [Example 93, N-(1-(6-((1,1-Dimethyl-2,3-dihydro-1H-inden-2-yl)amino)pyridin-3-yl)-2,2,2-trifluoroethyl)-N,1-dimethylazetidine-3-carboxamide] | 5.52 | 6.00 | 6.16 | –
14 | CC1c2ccccc2CC1Nc1ccc(C(N(C)C(=O)C2CCS(=O)(=O)CC2)C(F)(F)F)cc1 (mixture of isomers) [Example 8, N-Methyl-N—((S)-2,2,2-trifluoro-1-(4-(((1,2-cis)-1-methyl-2,3-dihydro-1H-inden-2-yl)amino)phenyl)ethyl)tetrahydro-2H-thiopyran-4-carboxamide 1,1-dioxide] | – | 6.70 | 7.41 | 6.82
15 | CC(=O)N1CC(C)(C(=O)N(C)[C@@H](c2ccc(NC3Cc4ccccc4C3(C)C)cc2)C(F)(F)F)C1 (single isomer, unassigned) [Example 42] | 5.80 | 6.80 | 7.46 | –
16 | CN(C(=O)CCO)[C@@H](c1ccc(NC2Cc3ccccc3C2(C)C)cc1)C(F)(F)F (single isomer, unassigned) [Example 35] | 5.42 | 6.54 | 7.57 | –
17 | COCCC(=O)N(C)[C@@H](c1ccc(NC2Cc3ccccc3C2(C)C)cc1)C(F)(F)F (single isomer, unassigned) [Example 32] | 5.25 | 6.70 | 6.89 | –
18 | CN(C(=O)C1CCOCC1)[C@@H](c1ccc(NC2Cc3ccccc3C2(C)C)cc1)C(F)(F)F (single isomer, unassigned) [Example 18] | 6.28 | 6.48 | 6.92 | –
19 | CN(C(=O)c1cc[nH]c(=O)c1)C(c1ccc(NC2Cc3ccccc3C2(C)C)cn1)C(F)(F)F (single isomer, unassigned) [Example 96, N-(1-(5-((1,1-Dimethyl-2,3-dihydro-1H-inden-2-yl)amino)pyridin-2-yl)-2,2,2-trifluoroethyl)-N-methyl-2-oxo-1,2-dihydropyridine-4-carboxamide] | – | 6.85 | 6.89 | 5.81
20 | CN(C(=O)CN1CCCC1=O)[C@@H](c1ccc(NC2Cc3ccccc3C2(C)C)cc1)C(F)(F)F (single isomer, unassigned) [Example 46] | 6.36 | 6.60 | 7.18 | –
21 | CN(C(=O)C1CNC1)[C@@H](c1ccc(NC2Cc3ccccc3C2(C)C)cc1)C(F)(F)F (stereo partly drawn) [Example 72, N-((1S)-1-(4-((1,1-Dimethyl-2,3-dihydro-1H-inden-2-yl)amino)phenyl)-2,2,2-trifluoroethyl)-N-methylazetidine-3-carboxamide Hydrochloride] | – | 6.57 | 6.66 | 6.28
22 | CN(C(=O)C1CNC1)C(c1ccc(NC2Cc3ccccc3C2(C)C)cn1)C(F)(F)F (single isomer, unassigned) [Example 85, N-(1-(5-((1,1-Dimethyl-2,3-dihydro-1H-inden-2-yl)amino)pyridin-2-yl)-2,2,2-trifluoroethyl)-N-methylazetidine-3-carboxamide] | 5.71 | 6.21 | 6.21 | –
23 | CN(C(=O)c1cc[nH]c(=O)c1)[C@@H](c1ccc(NC2Cc3ccccc3C2(C)C)cc1)C(F)(F)F (single isomer, unassigned) [Example 21] | 6.59 | 6.70 | 7.21 | –
24 | C[C@H](c1ccc(NC2Cc3ccccc3C2(C)C)cc1)N(C)C(=O)C1CCS(=O)(=O)CC1 (single isomer, unassigned) [Example 63] | – | 6.41 | 6.70 | 5.59
25 | CN(C(=O)CCCC(=O)O)[C@@H](c1ccc(NC2Cc3ccccc3C2(C)C)cc1)C(F)(F)F (single isomer, unassigned) [Example 49] | – | 6.59 | – | 5.33
26 | COc1ccc2c(c1)CC(Nc1ccc([C@H](N(C)C(=O)C3CCS(=O)(=O)CC3)C(F)(F)F)cc1)C2 (single isomer, unassigned) [Example 54] | – | 6.48 | – | 5.68
27 | CN(C(=O)CCC(=O)O)[C@@H](c1ccc(NC2Cc3ccccc3C2(C)C)cc1)C(F)(F)F (single isomer, unassigned) [Example 52] | – | 6.59 | – | 5.02
28 | CN(C(=O)C1CCS(=O)(=O)CC1)[C@@H](c1ccc(NC2Cc3ccccc3C2)cn1)C(F)(F)F (single isomer, unassigned) [Example 71] | – | 6.48 | – | 5.58
29 | CN(C(=O)CCCC(=O)O)[C@@H](c1ccc(NC2Cc3ccccc3C2(C)C)cc1)C(F)(F)F (single isomer, unassigned) [Example 50] | 5.53 | 6.92 | – | –
30 | CN(C(=O)CCC(=O)O)[C@@H](c1ccc(NC2Cc3ccccc3C2(C)C)cc1)C(F)(F)F (single isomer, unassigned) [Example 53] | 5.14 | 6.77 | – | –
